Changes are numbered by the printed parent chain. “And” between values parts separate entries of the source, which are not always exact repeats. Equal values may be shown once. Read-outs that look alike come from different tables or passages of the source.
Assays:
rat steroid 5α-reductase [1] = target: T1, rat steroid 5α-reductase (Rattus norvegicus, UniProt P24008); experiment: steroid 5α-reductase activity/inhibition in vitro, homogenates of COS cells expressing rat cDNA (Table III); details: rat enzyme; for Ki: two [14C]testosterone concentrations
T1 sequence (P24008 5-259): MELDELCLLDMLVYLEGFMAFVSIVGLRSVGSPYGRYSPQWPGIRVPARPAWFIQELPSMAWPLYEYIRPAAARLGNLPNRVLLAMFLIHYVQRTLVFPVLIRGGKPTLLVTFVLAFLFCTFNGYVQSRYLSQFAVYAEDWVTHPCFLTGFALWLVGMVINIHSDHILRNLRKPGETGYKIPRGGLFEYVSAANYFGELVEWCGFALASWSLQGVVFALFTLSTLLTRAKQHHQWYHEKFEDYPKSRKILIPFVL
Excerpt: (§1) Expression Vector Construction. A rat steroid 5α-reductase cDNA corresponding to nucleotides 1-1962 (see Example 1) was ligated into the pCMV4 expression vector (Andersson et al., 1989b). A human cDNA corresponding to nucleotides 1 to 842 of FIG. 7 was initially ligated into pCMV4. […] After amplification, the product was ligated into pCMV4.
(§2) Expression of Steroid 5α-Reductase 1 cDNAs in COS Cells. Simian COS-M6 cells were transfected as described by Andersson et al. (1989b). The assay of steroid 5α-reductase activity in intact cells was carried out as described in Example 1 except that [^14 C]-labeled steroid dissolved in ethanol were added to the transfected cell medium and subsequent organic extractions were carried out with dichloromethane. TLC and liquid scintillation counting were performed as described in Example 1.
(§3) To assay steroid 5α-reductase activity in vitro, cells were harvested 48 hours after transfection, washed once with phosphate buffered saline and either frozen in liquid N2 or homogenized directly with a Polytron in 10 mM potassium phosphate (pH 7.4), 150 mM KCl and 1 mM EDTA, at a protein concentration of 2 mg/ml. A typical assay contained 10 to 50 μg of cell homogenate protein in 0.5 ml of 0.1M potassium phosphate buffer (pH 6.6, rat enzyme; pH 7.0, human enzyme). Steroids were added in 5 μl ethanol, and the reaction was initiated by the addition of NADPH to a final concentration of 2-5 mM. Incubations were carried out for 10 min at 37° C. and terminated by the addition of 5 ml dichloromethane. Organic execrations and thin-layer chromatography analysis were as described above.
(§4) The apparent Km and Vmax values in this system were determined in vitro with five different steroid substrates (Table III).
(§5) The apparent Ki values were then determined for 4-aza-steroid (4-MA and MK-906) inhibition of 5α-reductases expressed in COS cells. […] The data obtained were analyzed using Dixon plots to determine the type of inhibition and the apparent Ki value (Dixon et al., 1979).
(§6) COS call transfaction, cell homogonate preparation, and enzyme assay were
(§7) carried out as described in Materials and Methods. Each Km value
(§8) represents the average of at least two experiments carried out on
(§9) different days using cell lysates prepared from different transfections.

[2] = target: T2, human steroid 5α-reductase 1 (Homo sapiens, UniProt P18405); experiment: steroid 5α-reductase activity/inhibition in vitro, homogenates of COS cells expressing human steroid 5α-reductase 1 cDNA (Table III); details: human enzyme; for Ki: two [14C]testosterone concentrations
T2 sequence (P18405 1-259): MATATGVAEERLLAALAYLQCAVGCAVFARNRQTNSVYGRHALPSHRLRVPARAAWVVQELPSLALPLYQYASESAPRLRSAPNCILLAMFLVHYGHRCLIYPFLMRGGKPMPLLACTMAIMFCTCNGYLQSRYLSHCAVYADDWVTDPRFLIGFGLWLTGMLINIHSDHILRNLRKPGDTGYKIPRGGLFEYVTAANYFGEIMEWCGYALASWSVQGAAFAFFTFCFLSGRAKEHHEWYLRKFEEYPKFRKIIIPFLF
Excerpt: as §1, §2, §3, §4, §5, §6, §7, §8, §9

[3] = target: T3, human prostate 5α-reductase (prostate extract) (Homo sapiens, UniProt P31213); experiment: finasteride inhibition of 5α-reductase in human prostate extract; type: biochemical
T3 construct: Prostate tissue was obtained from subjects undergoing surgical treatment for benign prostatic hyperplasia; from tissue; host or cells: human prostate (benign prostatic hyperplasia), membrane extract
T3 sequence (P31213 1-254): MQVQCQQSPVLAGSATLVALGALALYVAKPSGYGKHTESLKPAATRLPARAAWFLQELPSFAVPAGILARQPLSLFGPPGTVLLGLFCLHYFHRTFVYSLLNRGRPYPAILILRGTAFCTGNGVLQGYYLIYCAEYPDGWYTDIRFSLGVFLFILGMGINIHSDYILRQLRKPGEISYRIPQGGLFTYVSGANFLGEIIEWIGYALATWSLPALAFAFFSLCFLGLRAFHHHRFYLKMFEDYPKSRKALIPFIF

human 5α-reductase 1 = target: T4, human 5α-reductase 1 (Homo sapiens, UniProt P18405); experiment: finasteride inhibition of 5α-reductase 1 expressed in human embryonic kidney 293 cells (FIG. 15B); type: biochemical
T4 construct: Human 5α-reductase 1 is 259 residues long; expressed in transfected cells; host or cells: human embryonic kidney 293 cells
T4 sequence (P18405 1-259): T2 sequence (P18405 1-259)
Protocol: (§10) FIGS. 15A-15B. Characterization of expressed human 5α-reductase isozymes with regard to pH optima and finasteride inhibition. Expression plasmids containing the 5α-reductase 1 or 2 cDNAs (FIGS. 7 and 13, respectively) were transfected into human embryonic kidney 293 cells. […] Reductase enzyme activity obtained in extracts of transfected human embryonic kidney 293 cells in the absence of inhibitor was defined as 100%. In both panels, conversion into dihydrotestosterone was determined, after 10 minute incubations, by thin layer chromatography. Protein concentrations in cell extracts were measured as in Lowry, 1951.
(§11) Steroid 5α-Reductase Assay. […] Termination, organic extraction and TLC were performed as described in Example 1, using a chloroform-ethyl acetate (3:1, v/v) mobile phase in the TLC.
(§12) The properties of the two human steroid 5α-reductase isozymes were also compared directly, following expression in human embryonic kidney 293 cells.

human 5α-reductase 2 [4] = target: T5, human 5α-reductase 2 (Homo sapiens, UniProt P31213); experiment: finasteride inhibition of 5α-reductase 2 expressed in human embryonic kidney 293 cells (FIG. 15B); type: biochemical
T5 construct: predicted to be a hydrophobic polypeptide of 254 amino acids; expressed in transfected cells; host or cells: human embryonic kidney 293 cells, pCMV expression vector
T5 sequence (P31213 1-254 L89V): T3 sequence (P31213 1-254) with L89V
Protocol: as §10, §11, §12

human 5α-reductase 2 [5] = target: T6, human 5α-reductase 2 (Homo sapiens, UniProt P31213, L89V); experiment: as above; type: biochemical; details: 5α-reductase 2, 293 cells
T6 construct: predicted to be a hydrophobic polypeptide of 254 amino acids; expressed in transfected cells; host or cells: human embryonic kidney 293 cells, pCMV expression vector
T6 sequence (P31213 1-254 L89V): T3 sequence (P31213 1-254) with L89V
Protocol: as §10, §11, §12

[6] = test system: prostate extract and steroid 5α-reductase 1; experiment: finasteride inhibition of mixed aliquots of prostate extract and steroid 5α-reductase 1 extract; type: biochemical, human; details: aliquots with equivalent 5α-reductase activity mixed
steroid 5α-reductase = details: Liang et al., 1985; cited from earlier work
[7] = test system: major human prostate 5α-reductase enzyme; details: Liang et al., 1985; cited from earlier work
[8] = target: T2, human steroid 5α-reductase 1; experiment: finasteride inhibition of steroid 5α-reductase 1 expressed in COS cells (Example 6); type: biochemical; design: Human 5α-reductase 1 is 259 residues long; expressed in transfected cells; host or cells: simian COS-M6 cells, pCMV4 vector
rat steroid 5α-reductase [9] = target: T1, rat steroid 5α-reductase; experiment: steroid 5α-reductase assay in intact transfected COS cells, rat cDNA; type: cell-based; design: the open reading frame would encode a hydrophobic protein of 255 amino acids; expressed in transfected cells; host or cells: simian COS-M6 cells, pCMV4 vector; details: rat enzyme expressed in COS cells; 37° C., 2 hr
Excerpt: as §1, §2
(§13) COS cells were transiently transfected with expression vectors harboring the rat or human steroid 5α-reductase 1 cDNAs, or with the pCMV4 vector alone.
(§14) IC50 values for MK-906 and 4-MA inhibition of 5α-reductases expressed in COS cells were also determined. […] See Example 6 and FIG. 15, for further analysis of 4-aza-steroid inhibition.

rat steroid 5α-reductase [10] = target: T1, rat steroid 5α-reductase; design: the open reading frame would encode a hydrophobic protein of 255 amino acids; expressed in transfected cells; host or cells: simian COS-M6 cells, pCMV4 vector; details: simian COS cells; Andersson & Russell, 1990; cited from earlier work
[11] = test system: endogenous Xenopus enzyme (presumably a 17β-hydroxysteroid dehydrogenase); experiment: conversion of steroids by endogenous Xenopus oocyte enzymes (control for nonspecific inhibition); type: cell-based, Xenopus laevis; details: 5 μM substrate, 5 μM inhibitor
Protocol: Steroid 5α-Reductase Enzyme Assay. Stage 5 and 6 oocytes were surgically removed from female Xenopus laevis (NASCO, Fort Atkinson , Wis.) and collagenase-treated as described by Julius et al., (1988). Oocytes were injected with 50-100 nl of RNA (1 μg/μl) as described by Peacock et al. (Peacock et al., 1988). After injection the oocytes were incubated at 19° C. for 24 hours in modified Barth's saline solution (Peacock et al., 1988) containing 1 mg/ml bovine serum albumin (BSA) to allow expression of the injected RNA. Five to ten viable oocytes were then transferred to 1 ml of modified Barth's saline solution containing 5 μM ^14 C-labeled steroid (50 mCi/mmol, Du Pont-New England Nuclear), and incubated at 37° C. for 2-24 h. […] After the 37° C. incubation, the oocytes were homogenized in the incubation medium and steroid was extracted with 10 ml of dichloromethane. The solvent was evaporated under air and the residue was dissolved in 0.1 ml of chloroform/methanol (2:1, v/v) and subjected to thin-layer chromatography using Siica Gel 60 thin-layer chromatography plates (E. merck, 5748-7, Darmstadt, West Germany). […] The identities of the products were determined by comparison to the Rf values of known standards.
(§15) The oocytes were then incubated with different radiolabeled steroids for an additional 24 hours and the products formed were analyzed by thin-layer chromatography (TLC).

[12] = target: T7, cloned rat steroid 5α-reductase (Rattus norvegicus, UniProt P24008); experiment: substrate specificity / inhibition of cloned rat liver steroid 5α-reductase expressed in Xenopus oocytes
T7 sequence (P24008 5-259): T1 sequence (P24008 5-259)
Protocol: The various steroids and metabolites are identified on the left and right of the autoradiograms: P, progesterone ; 5αP, 5α-dihydroprogesterone; others are as indicated in the legend to FIG. 2. The amount of 5α-reduced metabolites for each substrate is indicated at the bottom of the figure and was determined by liquid scintillation counting after cutting out appropriate zones from the chromatograms.
Steroid 5α-Reductase Enzyme Assay. Stage 5 and 6 oocytes were surgically removed from female Xenopus laevis (NASCO, Fort Atkinson , Wis.) and collagenase-treated as described by Julius et al., (1988). Oocytes were injected with 50-100 nl of RNA (1 μg/μl) as described by Peacock et al. (Peacock et al., 1988). After injection the oocytes were incubated at 19° C. for 24 hours in modified Barth's saline solution (Peacock et al., 1988) containing 1 mg/ml bovine serum albumin (BSA) to allow expression of the injected RNA. Five to ten viable oocytes were then transferred to 1 ml of modified Barth's saline solution containing 5 μM ^14 C-labeled steroid (50 mCi/mmol, Du Pont-New England Nuclear), and incubated at 37° C. for 2-24 h. This temperature-jump protocol is based on the observation that expression of mRNA in Xenopus is maximal a 19° C., whereas rat steroid 5α-reductase expressed in Xenopus has a temperature optima of 37° C. After the 37° C. incubation, the oocytes were homogenized in the incubation medium and steroid was extracted with 10 ml of dichloromethane. The solvent was evaporated under air and the residue was dissolved in 0.1 ml of chloroform/methanol (2:1, v/v) and subjected to thin-layer chromatography using Siica Gel 60 thin-layer chromatography plates (E. merck, 5748-7, Darmstadt, West Germany). The chromatoplates were autoradiographed for 18 hours at -70° C. and the radioactive zones were cut out and subjected to liquid scintillation counting in Complete Counting Cocktail (Research Products International). The identities of the products were determined by comparison to the Rf values of known standards.
as §15

[13] = target: T2, human steroid 5α-reductase 1; experiment: steroid 5α-reductase assay in intact transfected COS cells, human type 1 cDNA; type: cell-based; design: Human 5α-reductase 1 is 259 residues long; expressed in transfected cells; host or cells: simian COS-M6 cells, pCMV4 vector; details: human steroid 5α-reductase 1 expressed in COS cells; 37° C., 2 hr
Excerpt: as §1, §2, §13, §14

[14] = read-out: apparent Ki, Dixon plots

## CC(C)(C)NC(=O)[C@H]1CC[C@H]2[C@@H]3CC[C@H]4NC(=O)C=C[C@]4(C)[C@H]3CC[C@]12C [MK-906, 17β-N-t-butylcarbamoyl-4-aza-5α-androst-1-en-3-one]
Rat steroid 5α-reductase [1]; apparent Ki, Dixon plots
  Ki: 3 to 5 nM and 3 nM and 4 nM and 5 nM
[2]; apparent Ki, Dixon plots
  Ki: 340 to 620 nM and 340 nM and 380 nM and 620 nM
[3]
  IC50: 10 nM
Human 5α-reductase 1
  IC50: ~900 nM
Human 5α-reductase 1; 5α-reductase 1, 293 cells
  Ki: ~230 nM
Human 5α-reductase 2 [4]
  IC50: ~30 nM
Human 5α-reductase 2 [5]
  Ki: ~5 nM
[6]
  inhibition curve of mixed extracts: biphasic
Steroid 5α-reductase
  type of inhibition: competitive inhibitors
[7]
  type of inhibition: competitive inhibitor
[8]
  IC50: 10000 nM
Rat steroid 5α-reductase [9]
  IC50 inhibition, relative potency of MK-906 and 4-MA: equipotent
Rat steroid 5α-reductase [10]
  inhibition of rat steroid 5α-reductase: inhibited

## CCN(CC)C(=O)[C@H]1CC[C@H]2[C@@H]3CC[C@H]4N(C)C(=O)CC[C@]4(C)[C@H]3CC[C@]12C [4-MA, 17α-N,N-diethylcarbamoyl-4-methyl-4-aza-5α-androtane-3-one]
Rat steroid 5α-reductase [1]
  apparent Ki (in words): low nanomolar range
Rat steroid 5α-reductase [1]; Dixon plots
  type of inhibition: competitive
Rat steroid 5α-reductase [1]; [14]
  Ki: 5 nM and 7 nM
[2]
  apparent Ki (in words): low nanomolar range
[2]; Dixon plots
  type of inhibition: competitive
[2]; [14]
  Ki: 7 nM and 8 nM
[11]
  effect on conversion of dihydrotestosterone into other 5α-reduced metabolites by endogenous Xenopus enzymes: no effect
  effect on conversion of testosterone into androstenedione by endogenous Xenopus enzyme: not inhibited
Steroid 5α-reductase
  type of inhibition: competitive inhibitors
[12]; 5 μM substrate, 5 μM inhibitor
  effect on reduction of androstenedione: efficiently blocked
  effect on reduction of progesterone: efficiently blocked
[12]; equimolar testosterone and inhibitor (5 μM each)
  effect on formation of 5α-reduced products from testosterone: substantial decrease
[13]
  IC50 inhibition, relative potency of 4-MA versus MK-906: approximately ten-fold more potent than MK-906
Rat steroid 5α-reductase [9]
  IC50 inhibition, relative potency of MK-906 and 4-MA: equipotent
